Results reported in PMC8322648, “Brevibacillin 2V Exerts Its Bactericidal Activity via Binding to Lipid II and Permeabilizing Cellular Membranes” (Frontiers in Microbiology, 2021).

Tests used:
[1] = Carboxyfluorescein leakage assay, DOPC LUVs with 0.1% Lipid II; conditions: peptide 100 nM; for membrane permeabilization (CF leakage), Lipid II containing LUVs: LUVs 5 μM, DOPC plus 0.1% Lipid II, 25 mM Tris-HCl, 150 mM NaCl, pH 7.5, ex 492/em 515 nm
Experimental: LUVs that contain DOPC or DOPC plus 0.1% Lipid II were prepared for a carboxyfluorescein (CF) leakage assay. The lipids were dried by a nitrogen stream and followed under vacuum for 2 h. After that, the lipids were hydrated by adding 25 mm Tris-HCl, 150 mm NaCl, and pH 7.5 containing 50 mm CF. The suspensions were frozen and thawed 10 times, followed by extrusion through 200nm membrane filters (Whatman Nuclepore, Track-Etch Membranes) 10 times. The excess dye was removed by loading vesicles on a spin column (Sephadex G50) for 2 min at 500 × g. Subsequently, the vesicles were diluted to 5 μm, and the brevibacillins-induced release of CF from the vesicles was monitored by measuring the increase in fluorescence intensity. The maximum fluorescence was reached by adding 10 μl of 20% Triton X-100. A Cary Eclipse Fluorescence Spectrophotometer (Agilent, United States) was used to determine the changes of fluorescence signals, and the excitation wavelength and emission wavelength were adjusted to 492 nm and 515 nm, respectively.

[2] = Isothermal titration calorimetry; type: binding; conditions: Figure 5; DOPC LUVs with 2 mol % Lipid II titrated into 50 μM peptide, 10 mM Tris-HCl, 100 mM NaCl, pH 8, 25°C
Experimental: LUVs containing Lipid II (2%, mol/mol) were prepared by mixing the appropriate volumes of Lipid II and DOPC stock solutions in CHCl3/MeOH (2:1, v/v). The lipid solutions were dried by a nitrogen stream and hydrated with 10 mm Tris-HCl, 100 mm NaCl, and pH 8 buffer to a lipid-phosphate concentration of ~ 20 mm. LUVs were obtained after 10 times freeze-thaw cycles followed by 10 rounds of extrusion through 200 nm membrane filters (Whatman Nuclepore, Track-Etch Membranes). The concentration of lipid-phosphate was determined as described ([Rouser et al., 1970]).
Isothermal titration calorimetry was performed with the Low Volume Nano ITC (Waters LLC, New Castle, DE, United States) to determine the interaction between LUVs and brevibacillins. Brevibacillins were diluted in a buffer (10 mm Tris-HCl, 100 mm NaCl, and pH 8) to a final concentration of 50 μm. Samples were degassed before use. The chamber was filled with 177 μl of the brevibacillins solutions, and the LUVs were titrated into the chamber at a rate of 2 μl/300 s with a stirring rate of 300 rpm. Experiments were performed at 25°C. Control experiments were performed with Lipid II-free LUVs. The Kd values of brevibacillins to Lipid II were calculated using the Nano Analyze Software (Waters LLC).

[3] = Circular dichroism assay, 7-Lipid II; type: binding; conditions: 10 mM boric acid-NaOH pH 7.5, 0.1% CHAPS, 20°C; for conformational change in presence of DOPC: antibiotic 50 μM, DOPC vesicles 100 μM; for conformational change in presence of 7-Lipid II: antibiotic and 7-Lipid II 50 μM
Experimental: Lipid II and 7-Lipid II (a heptaprenyl version of Lipid II) were synthesized and purified as described in a previous study ([Breukink et al., 2003]; Figures 2A,B). Purified Lipid II and 7-Lipid II were dissolved in CHCl3/MeOH (2:1) and stored at −20°C until use, and the concentration was determined after destruction to inorganic phosphate according to [Rouser et al. (1970)]. 7-Lipid II was only used in circular dichroism assays, while wild-type Lipid II was used in all of the other assays.
7-Lipid II and 1,2-dioleoyl-sn-glycero-3-phosphocholine (DOPC) were resuspended in 10 mm boric acid-NaOH pH 7.5 containing 0.1% CHAPS. The final concentration of antibiotics and 7-Lipid II was adjusted to 50 μm, while a 100 μm final concentration of DOPC vesicles was used. After added the samples to a quartz cuvette with a path length of 1 mm, the CD spectra were recorded with a Jasco-810 CD spectropolarimeter at 20°C. The ellipticity was recorded between 185 nm and 260 nm at a 0.2-nm step size with 1-s response time. The spectra were averaged over five recordings with a scanning speed of 50 nm/min.

[4] = ref Zhao et al., 2021; cited from earlier work
[5] = tested on: HepG2; conditions: Figure 1, ref Zhao et al., 2021; cited from earlier work
Excerpt: (§1) A vast number of bacterial non-ribosomally produced peptides (NRPs) have shown strong antimicrobial activity against pathogenic bacteria ([Cochrane et al., 2014]; [Cociancich et al., 2015]; [Hamamoto et al., 2015]; [Ling et al., 2015]; [Süssmuth and Mainz, 2017]). Lipo-tridecapeptides, a class of NRPs, show strong antimicrobial activity against Gram-positive pathogens, including antibiotic-resistant Staphylococcus aureus and Enterococcus spp. ([Barsby et al., 2001], [2006]; [Yang et al., 2016]; [Wu et al., 2019]; [Zhao et al., 2021]). However, many of these lipo-tridecapeptides have shown high ... || Figure 1 Structures of brevibacillins. The red color indicates the more hydrophobic amino acid residues of brevibacillin V, brevibacillin and brevibacillin I relative to brevibacillin 2V. MIC, the minimum inhibitory concentration against Staphylococcus aureus (MRSA). HC50, the 50% human blood cell hemolysis concentration. CC50, the 50% cell (HepG2) toxicity concentration.

[6] = tested on: human red blood cells; conditions: 2021, cited from earlier work; for HC50, 50% human blood cell hemolysis concentration: Figure 1, ref Zhao et al.
Excerpt: as §1

[7] = tested on: Staphylococcus aureus (MRSA); conditions: ref Zhao et al., cited from earlier work; for MIC: Staphylococcus aureus (MRSA), Figure 1, 2021; for MIC (molar): strain not given, compared with CF leakage concentration, 2021 (MIC source, b3)
Excerpt: Figure 1 Structures of brevibacillins. The red color indicates the more hydrophobic amino acid residues of brevibacillin V, brevibacillin and brevibacillin I relative to brevibacillin 2V. MIC, the minimum inhibitory concentration against Staphylococcus aureus (MRSA). HC50, the 50% human blood cell hemolysis concentration. CC50, the 50% cell (HepG2) toxicity concentration. […] LUVs-based CF leakage assay is widely used in the studies of the antibiotic mode of action ([Hasper et al., 2004]; [Smith et al., 2008]; [Slootweg et al., 2015]; [Bakhtiary et al., 2017]). Disruption of the vesicle membrane by certain compounds releases CF from the LUVs into the extra-vesicular milieu resulting in increased fluorescence signal (Figure ...

Substance | percentage of CF leakage, comparison in words ([1]; LUVs with 0.1% Lipid II) | membrane permeabilization (CF leakage), Lipid II containing LUVs [1] | Kd [2] [µM] | conformational change in presence of DOPC [3] | conformational change in presence of 7-Lipid II [3] | rank order of calculated hydrophobicity [4] | CC50, 50% cell (HepG2) toxicity concentration [5] [µg/mL] | HC50, 50% human blood cell hemolysis concentration [6] [mg/L] | MIC [7] [µg/mL] | MIC (molar) [7] [µM] | cytotoxicity relative to the other brevibacillins [5] | hemolytic activity ([6]; 128 mg/L, ref Zhao et al.)
Brevibacillin | higher percentage of CF leakage than brevibacillin 2V | rapid membrane permeabilization | 0.869 | no change was apparent | significant conformational change | brevibacillin I > brevibacillin > brevibacillin V > brevibacillin 2V | 5.21 ± 0.01 | 25.1 ± 0.1 | 2 | 1.3 |  | 
Brevibacillin 2V |  | rapid membrane permeabilization | 7.89 | no change was apparent | significant conformational change | brevibacillin I > brevibacillin > brevibacillin V > brevibacillin 2V | 45.49 ± 0.24 | > 128 | 2 | 1.3 | much lower cytotoxicity than the other brevibacillins | no hemolytic activity
